In patent US5929074A, “Pyridazinone derivatives with pharmaceutical activity” (Nissan Chemical Industries, Ltd., priority 1993, dated 1999):
Read-outs that look alike come from different tables or passages of the source.

Assays:
guinea-pig trachea [1] = experiment: Bronchodilating effect in vitro, Method 1-2: relaxation of guinea-pig trachea strips (no LTD4 contraction); type: cell-based; conditions: Cavia porcellus; Method 1-2; trachea conditioned with 1 μM isoproterenol, no LTD4; DMSO 0.2 v/v%; read-out: EC50 (concentration to achieve 50% relaxation relative to relaxation by 1 mM aminophylline)
Experimental: (§1) A test sample drug was dissolved in 100% dimethylsulfoxide (DMSO, Wako Junyaku) and diluted for use. Leukotriene D4 (LTD4, Ultrafine) and isoproterenol (Isoproterenol, Sigma) were diluted with distilled water. Indomethacin (Indo, Sigma) was dissolved in 100% ethanol (EtOH, Komune Kagaku). Aminophylline (AP, Sigma), histamine dihydrochloride (His, Wako Junyaku) was dissolved in distilled water. The final concentrations of DMSO and EtOH in a bath were made not higher than 0.25% v/v and not higher than 0.1% v/v, respectively. Method 1:1:
(§2) A guinea-pig of 300-450 g was exsanguinated, and the trachea was taken out. After removing fat and connective tissues, it was cut and divided into 2 to 3 spiral strips, each having a width of about 2 mm and containing 4 smooth muscle tissues. Each specimen thus prepared was suspended in an organ bath of 8 ml containing a modified Tyrode solution aerated with 95% O2 +5% CO2 at 37° C., and a load of 1 g was applied thereto. The relaxation of the muscle was recorded by a pen recorder (Yokogawa Hokushin Electric, type 3066) by means of an isotonic transducer (Nihon Kohden, TD-112S).
The same measuring method as method 1-1 was employed. The specimen was allowed to stand for from 60 to 90 minutes and then relaxed by an addition of 1 μM of isopreterenol. The specimen was washed, and this operation was repeated at an interval of from 30 to 40 minutes until a constant relaxation reaction was reached. Then, a test sample drug was accumulately applied to relax the specimen. Finally, 1 mM of AP was added to achieve the maximum relaxation reaction. The result was expressed by relaxation percent relative to the relaxation by AP which was rated 100%, and a concentration to achieve 50% relaxation (EC50, μM) was obtained. The final concentration of DMSO in the bath was adjusted to be 0.2 v/v%. As a control drug, AP was used.

guinea-pig trachea [2] = experiment: Bronchodilating effect in vitro, Method 1-1: relaxation of LTD4-contracted guinea-pig trachea strips; type: cell-based; conditions: Method 1-1, LTD4 (30 nM) contracted trachea, indomethacin 5 μM, read-out: EC50 (concentration to achieve 50% relaxation relative to relaxation by 1 mM aminophylline)
Experimental: as §1, §2
The composition of the modified Tyrode solution was as follows (mM):
The specimen was allowed to stand for 50-60 minutes, and was contracted with histamine dihydrochloride (100 μM). After the reaction became constant, it was washed and allowed to stand for 20-30 minutes. Indomethacin (5 μM) was added thereto, and after incubation for 30 minutes, the specimen was contracted by adding LTD4 (30 nM). After the reaction-became stable, a test sample drug was accumulatively administered. Finally, AP (1 mM) was added to achieve the maximum relaxation reaction. The result was expressed by relaxation percent relative to the relaxation by AP which was rated 100%, and a concentration to achieve 50% relaxation (EC50, μM) was measured. As a control drug, AP was used.

platelet = experiment: Anti-platelet aggregation effect in rabbits (ADP-induced); type: cell-based, rabbit; conditions: rabbit PRP, ADP 5 to 10 μM, 37° C., read-out: IC50 (concentration at which aggregation of control sample was 50% inhibited)
Experimental: Anti-platelet aggregation effect in rabbits
Blood was collected from the abdominal artery of Japanese white male rabbits (weight: 1.8 to 2.5 kg) into a syringe containing 1/10 volume 3.8% sodium citrate. The blood thus obtained was subjected to a centrifugation at 200×g for 7 minutes at room temperature to obtain platelet rich plasma (PRP). Furthermore, the residue was subjected to a centrifugation at 2000×g for 10 minutes to obtain platelet poor plasma (PPP). The measurement was effected by diluting PRP with PPP to 300,000/mm^3. PRP and PPP were placed in a cuvette, and the measurement range of transmittance was adjusted to 0% in the case of PRP and to 100% in the case of PPP. Thereafter, a test sample drug dissolved in 100% dimethylsulfoxide (DMSO) was added to PRP (the final concentration of DMSO: 0.25%). After incubation was effected at 37° C. at 900 rpm for 2 minutes, an aggregating agent was added to record an aggregation curve. The anti-platelet aggregation effect of the test sample drug was expressed by a concentration (IC50 : μM) at which the aggregation of control sample was 50% inhibited. The aggregating agent ADP was used at the minimum concentration (5 to 10 μM) which caused the maximum aggregation. The measurement of platelet aggregation was carried out by using NBS HEMA TRACER 601.

[3] = tested on: anaphylactic bronchoconstriction mediated by endogeneously liberated SRS-A; experiment: Effect on anaphylactic bronchoconstriction mediated by endogeneously liberated SRS-A in passively sensitized guinea-pig; type: in vivo; conditions: 30 mg/kg, orally 2 hours before EA challenge; for inhibition in vivo at 30 mg/kg: Cavia porcellus, po, 2 h, read-out: Inhibition of broncho-constriction
Experimental: Effect on anaphylactic bronchoconstriction mediated by endogeneously liberated SRS-A in passively sensitized guinea-pig
Male guinea-pigs (350-450 g) were passively sensitized with intravenous (i.v.) injection of 0.125 ml rabbit anti-EA (egg albumin) serum (Capple Laboratories) 1 to 2 days preceding the experiment. Antigen-induced anaphylactic bronchoconstrictions mediated by endogeneously liberated SRS-A were measured by modified method of Konzett and Rossler (Arch. Exp. Path. Pharmak., 195, 71, 1940). Sensitized quinea-pigs were anaesthetized with intraperitoneal injection of urethane (1.5 g/kg). The right jugular vein was cannulated for the administration of the all agents and trachea was cannulated to record total pulmonary resistance. Guinea-pigs were artificially ventilated by a small animal respirator (Shinano, Model SN-480-7) set at a stroke volume of 4.5 ml and a rate of 50 breaths per min. The change in pulmonary resistance was measured with a pressure transducer (Nihon Kohden, Model TP-602T) connected to a T-tube on the tracheal cannula. The percentage of the maximum bronchoconstriction obtained by clamping off the trachea. Following surgical preparation, the animals were pretreated with indomethacin (2 mg/kg, 10 min), pyrilamine (2 mg/kg, 6 min) and propranolol (0.1 mg/kg, 5 min) prior to the EA challenge (0.2 mg/kg). All test compounds were administered orally 2 hours before the EA challenge. Inhibition (%) of broncho-constriction was determined as follows: Inhibition (%)=(1.0-% maximum bronchoconstriction in test/% maximum bronchoconstriction in control)×100. The maximum bronchoconstriction was 62±6% (Mean±S.E.M; n=6) and the number of test animals was 5-6.

[4] = Oryctolagus cuniculus, Platelet

| Structure (SMILES) | EC50 (guinea-pig trachea [1]) [nM] | EC50 (guinea-pig trachea [2]; Cavia porcellus) [nM] | also measured |
| --- | --- | --- | --- |
| Cn1c(=O)c2[nH]cnc2n(C)c1=O [Aminophylline, reference compound] | 37000 | 178000 |  |
| COc1ccc(CNc2cn[nH]c(=O)c2Cl)cc1OCCN1CCN(Cc2ccccc2)CC1 [Compound 4] |  | 1700 | IC50 (platelet; [4]): 5.2 µM |
| COc1ccc(CNc2cn[nH]c(=O)c2Br)cc1OCCN1CCN(Cc2ccccc2)CC1 [Compound 5] |  | 420 | IC50 (platelet; [4]): 4.1 µM |
| COc1ccc(CNc2cn[nH]c(=O)c2Br)cc1OCCN1CCN(Cc2ccccc2)CC1 [Compound 6] |  |  | IC50 (platelet): 3.9 µM |
| COc1ccc(CNc2cn[nH]c(=O)c2Br)cc1OCCN1CCN(Cc2ccc(F)cc2)CC1 [Compound 13] |  | 450 | IC50 (platelet; [4]): 2.9 µM |
| COc1ccc(CNc2cn[nH]c(=O)c2Br)cc1OCCN1CCN(Cc2ccc(F)cc2)CC1 [Compound 14] |  |  | IC50 (platelet): 3.5 µM |
| COc1ccc(CNc2cn[nH]c(=O)c2Cl)cc1OCCN1CCN(Cc2ccc(F)cc2)CC1 [Compound 15] |  | 480 | IC50 (platelet; [4]): 4.5 µM |
| COc1ccc(CNc2cn[nH]c(=O)c2Cl)cc1OCCN1CCN(Cc2ccc(F)cc2)CC1 [Compound 16] | 340 |  | IC50 (platelet): 5.2 µM |
| CCn1ncc(NCc2ccc(OC)c(OCCCN3CCN(Cc4ccc(F)cc4)CC3)c2)c(Cl)c1=O [Compound 27] |  | 4000 |  |
| COc1ccc(CNc2cn[nH]c(=O)c2Cl)cc1OCC(=O)NCc1cccnc1 [Compound 31] |  | 6900 |  |
| COc1ccc(CNc2cn[nH]c(=O)c2Br)cc1OCC(=O)N1CCN(Cc2cccnc2)CC1 [Compound 34] |  | 3800 |  |
| COc1ccc(CNc2cn[nH]c(=O)c2Cl)cc1OCC(=O)N1CCN(Cc2cccnc2)CC1 [Compound 35] |  | 6600 |  |
| COc1ccc(CNc2cn[nH]c(=O)c2Cl)cc1OCC(=O)N1CCN(Cc2ccccc2)CC1 [Compound 37] |  |  | Inhibition of broncho-constriction [3]: 54% |
| COc1ccc(CNc2cn[nH]c(=O)c2Br)cc1OCC(=O)N1CCN(Cc2ccccc2)CC1 [Compound 38] |  |  | IC50 (platelet; [4]): 1.2 µM |
| COc1ccc(CNc2cn[nH]c(=O)c2Br)cc1OCCCC(=O)N1CCN(Cc2ccccc2)CC1 [Compound 48] | 210 | 950 | IC50 (platelet; [4]): 4 µM |
| COc1ccc(CNc2cn[nH]c(=O)c2Cl)cc1OCCCCCC(=O)N1CCN(Cc2ccccc2)CC1 [Compound 49] |  | 1100 |  |
| COc1ccc(CNc2cn[nH]c(=O)c2Cl)cc1OCC(=O)N1CCN(Cc2ccc(Cl)cc2)CC1 [Compound 51] | 97 | 6100 | IC50 (platelet; [4]): 1.1 µM |
| COc1ccc(CNc2cn[nH]c(=O)c2Cl)cc1OCC(=O)N1CCN(Cc2ccc3ccccc3n2)CC1 [Compound 61] | 310 |  |  |
| CCOc1n[nH]c(=O)c(Cl)c1NCc1ccc(OC)c(OCC(=O)N2CCN(Cc3ccccc3)CC2)c1 [Compound 66] | 67 | 180 |  |
| COc1ccc(CNc2c(OC(C)C)n[nH]c(=O)c2Cl)cc1OCC(=O)N1CCN(Cc2ccc(F)cc2)CC1 [Compound 76] | 48 | 690 |  |
| COc1ccc(CNc2c(OC(C)C)n[nH]c(=O)c2Cl)cc1OCC(=O)N1CCN(Cc2ccc(N)cc2)CC1 [Compound 78, 4-Chloro-5-[3-(4-(4-aminobenzyl)-piperazin-1-yl)-carbonylmethoxy-4-methoxybenzylamino]-6-isopropoxy-3(2H)-pyridazinone] | 14 |  | inhibition in vivo at 30 mg/kg [3]: 54% |
| COc1ccc(CNc2c(OC(C)C)n[nH]c(=O)c2Cl)cc1OCC(=O)N1CCN(Cc2ccc(NC=O)cc2)CC1 [Compound 79] | 41 |  |  |

Second part, led by results:

| EC50 (guinea-pig trachea [1]) [nM] | EC50 (guinea-pig trachea [2]; Cavia porcellus) [nM] | Structure (SMILES) | also measured |
| --- | --- | --- | --- |
|  | 3100 | COc1ccc(CNc2cn[nH]c(=O)c2Cl)cc1OCC(O)CN1CCN(Cc2ccc(F)cc2)CC1 (stereo not drawn) [Compound 53] |  |
| 300 |  | COc1ccc(CNc2cn[nH]c(=O)c2Cl)cc1OCCCN1CCN(Cc2ccccc2)CC1 [Compound 54] | EC50 (guinea-pig trachea [2]): 2400 nM |
|  | 7300 | COc1ccc(CNc2cn[nH]c(=O)c2Cl)cc1OC(C)CN1CCN(Cc2ccc(F)cc2)CC1 (stereo not drawn) [Compound 55] |  |
| 50 |  | COc1ccc(CNc2cn[nH]c(=O)c2Cl)cc1OCC(=O)N1CCC(Cc2ccccc2)CC1 [Compound 62] |  |
| 360 |  | CCOc1n[nH]c(=O)c(Cl)c1NCc1ccc(OC)c(OCCN2CCN(Cc3ccc(F)cc3)CC2)c1 [Compound 65] |  |
| 430 |  | CCOc1n[nH]c(=O)c(Cl)c1NCc1ccc(OC)c(OCC(C)(C)C(=O)N2CCN(Cc3ccc(F)cc3)CC2)c1 [Compound 69] |  |
| 250 |  | CCOc1n[nH]c(=O)c(Cl)c1NCc1ccc(OC)c(OCCCN2CCN(Cc3ccc4ccccc4n3)CC2)c1 [Compound 71] |  |
| 490 |  | CCOc1n[nH]c(=O)c(Cl)c1NCc1ccc(OC)c(OCC(=O)N2CCN(Cc3nc4ccccc4n3Cc3ccc(F)cc3)CC2)c1 [Compound 73] |  |
| 46 |  | CCOc1n[nH]c(=O)c(Cl)c1NCc1ccc(OC)c(OCC(=O)N2CCC(Cc3ccccc3)CC2)c1 [Compound 74] | inhibition in vivo at 30 mg/kg [3]: 30% |
| 400 |  | CCOc1n[nH]c(=O)c(Cl)c1NCc1ccc(OC)c(OCCN2CCC(Cc3ccccc3)CC2)c1 [Compound 75] |  |
| 57 |  | COc1ccc(CNc2c(OC(C)C)n[nH]c(=O)c2Cl)cc1OCC(O)CN1CCN(Cc2ccc(NC=O)cc2)CC1 (stereo not drawn) [Compound 77] | inhibition in vivo at 30 mg/kg [3]: 65% |
| 39 |  | COc1ccc(CNc2c(OC(C)C)n[nH]c(=O)c2Cl)cc1OCC(=O)N1CCN(Cc2ccc(NC(C)=O)cc2)CC1 [Compound 80] | inhibition in vivo at 30 mg/kg [3]: 30% |
